Reference: PubChem BioAssay AID720513 (Broad Institute, 2013)
Results filed as inconclusive are left out.

The molecules below were run on U2OS PGC1a acetylation AlphaLISA, overnight (assay: activators raising PGC1a acetylation in cells, dose response, cell-based, cherry-picked samples, set 6 (AID 720513);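 also: cells made to overexpress flag tagged PGC1a plus GCN5 acetyltransferase by viral infection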).

Point of comparison: COCCN(C)Cc1nc(C(c2ccccc2)c2ccccc2)no1, AC40 9.12 µM. Against it:
- C[C@@H]1CN([C@H](C)CO)C(=O)c2cc(N(C)C)ccc2O[C@@H](C)CCCCO[C@H]1CN(C)C(=O)Cc1ccccc1 — 1.6-fold lower, 5.69 µM
- CC/C(=C(\c1ccc(O)cc1)c1ccc(OCCN(C)C)cc1)c1ccccc1 — 3.8-fold lower, 2.41 µM
- CC(Sc1nc2ccccc2s1)C(=O)NC1CCCc2ccccc21 (stereo not given) — within 1.5-fold, 12.4 µM
- CC(C)[C@H](C)NC(=O)N(C)C[C@H]1OCc2ccccc2-c2c(n(C)c3ccccc23)C(=O)N([C@H](C)CO)C[C@H]1C — 1.6-fold lower, 5.85 µM
- N#Cc1ccccc1COC(=O)c1ccc2c(c1)OCCO2 — 1.7-fold lower, 5.43 µM
- O=C1Nc2cc(S(=O)(=O)N3CCCC3)ccc2N2CCCC12 (stereo not given) — 1.8-fold higher, 16.6 µM
- COc1cccc(CN2C[C@@H]3N[C@H](C2)C3c2ccc(-c3cccc(C#N)c3)cc2)c1 (stereo not given in full) — within 1.5-fold, 10 µM
- O=C(Nc1ccc(OCC(=O)N2CCC(Cc3ccccc3)CC2)cc1)c1ccco1 — 2.9-fold lower, 3.17 µM
- c1ccc(-c2c(-c3ccccc3)n(Cc3ccco3)c3ncnc(NCCCn4ccnc4)c23)cc1 — 4.9-fold lower, 1.86 µM
- COc1ccc(CN(CCC(C)C)S(=O)(=O)c2ccccc2Br)cc1 — 4.5-fold lower, 2.04 µM
- CCOC(=O)c1c(NC(=O)c2ccoc2C)sc2c1CCC2 — 1.5-fold higher, 13.9 µM
- Cc1ccc(NC(=O)c2sccc2SCc2cccc(C(F)(F)F)c2)cc1 — 1.8-fold lower, 5.13 µM
- CCN1CCN(c2ncc(C(=O)Nc3cc(Cl)ccc3OC)c3ccccc23)CC1 — 1.7-fold lower, 5.32 µM
- O=C(Cc1ccccc1)Nc1ccc(NC(=O)c2cccs2)cc1 — 7.4-fold lower, 1.23 µM
- COc1ccc(Nc2nnc(-c3ccc(C(N)=O)cc3)c3ccccc23)cc1 — 17-fold lower, 0.524 µM
- COc1cc(CNC(=O)c2cc(-c3cc(C)cc(F)c3)n[nH]2)cc(OC)c1 — 1.7-fold higher, 15.8 µM
- OC(c1ccccc1)(C1CCCCC1)C(CN1CCOCC1)c1ccccc1 (stereo not given) — 14-fold lower, 0.634 µM
- Cc1c(C(=O)OCC(=O)c2c(N)n(CC(C)C)c(=O)n(C)c2=O)oc2ccccc12 — within 1.5-fold, 8.24 µM
- COC(=O)c1c(NC(=O)COC(=O)[C@@H](NS(=O)(=O)c2ccccc2)C(C)C)sc2c1CCC2 — within 1.5-fold, 13.5 µM
- CCOc1ccc(S(=O)(=O)N2c3ccccc3CC2C)cc1 (stereo not given) — within 1.5-fold, 11.5 µM
- Cc1cc(Nc2cccc(Cl)c2)c2ccccc2n1 — within 1.5-fold, 6.94 µM
- CSCCC(c1nnnn1-c1c(C)cccc1C)N1CCC(n2c(=O)[nH]c3ccccc32)CC1 (stereo not given) — 6.9-fold lower, 1.32 µM
- O=C(NCc1ccccc1)C1Cc2c(-c3ccc(Cl)cc3)ccnc2O1 (stereo not given) — within 1.5-fold, 6.16 µM
- COc1ccccc1CN1C[C@@H]2N[C@H](C1)C2c1ccc(-c2ccccc2OC)cc1 (stereo not given in full) — 2.3-fold higher, 20.8 µM
- O=C(Nc1cnc2ccccc2c1)c1cccnc1 — 14-fold lower, 0.651 µM
- OCCNc1nc(N2CCCCC2)nc2ccccc12 — 2-fold higher, 18.1 µM
- Cc1ccc(OCC(=O)NCCCNC(=O)c2cccnc2)cc1C — 4.3-fold lower, 2.1 µM
- CN1/C(=C\C(=O)c2cccc(S(=O)(=O)N3CCCCC3)c2)C(C)(C)c2ccccc21 — within 1.5-fold, 10.9 µM
- CC(C)CCNc1nc(N2CCCC2)c2c(c1C#N)CCN(C)C2 — 2.3-fold lower, 3.92 µM
- CCOC(=O)C1(N(CC)CC)Sc2cc(C)ccc2NC1=O (stereo not given) — 2.8-fold lower, 3.28 µM
- CN(C)CC(O)c1ccc(C=Cc2ccc(Cl)cc2)cc1 (stereo not given) — 2.9-fold lower, 3.19 µM
- Fc1ccc(CN(Cc2ccccc2)C(c2cccs2)c2nnnn2C2CCCCC2)cc1 (stereo not given) — within 1.5-fold, 12.7 µM
- O=C(Nc1ccc(F)cc1F)N1CCCN(c2ccc([N+](=O)[O-])cn2)CC1 — 2.7-fold lower, 3.36 µM
- COc1ccc(C(C)(O)c2nc(-c3ccc(S(C)(=O)=O)cc3)cs2)cc1 (stereo not given) — within 1.5-fold, 7.7 µM
- NC(=O)Cc1ccc2c(c1)[nH]c1ccccc12 — 6.9-fold lower, 1.33 µM
- O=C(NCCCN1CCOCC1)c1ccccc1N1C(=O)[C@@H]2Cc3c([nH]c4ccccc34)C(c3ccccc3)N2C1=O (stereo not given in full) — within 1.5-fold, 6.79 µM
- CN1C(=O)/C(=C\c2ccc(N3CCCCC3)o2)C(=O)NC1=S — 2-fold lower, 4.61 µM
- COc1ccc(NC(=O)Cn2ncc(Cl)c(Cl)c2=O)cc1S(=O)(=O)N1CCOCC1 — 5.7-fold lower, 1.6 µM
- O=C(CCCCCN1C(=O)c2cccc3cccc(c23)C1=O)NCc1cccnc1 — 44-fold lower, 0.207 µM
- CN(C(=O)C1CC1)C1CCS(=O)(=O)C1 (stereo not given) — 1.7-fold higher, 15.2 µM
- Cc1ccc(Cl)cc1NC(=O)Cn1nc(-c2cccs2)ccc1=O — 2.2-fold lower, 4.08 µM
- O=C(NC(Nc1cc(C(F)(F)F)ccc1Cl)C(=O)c1ccccc1)c1ccccc1 (stereo not given) — within 1.5-fold, 13.6 µM
- CC(=O)c1cc(-c2ccccc2)n(CCC(=O)NC2CCCCC2)c1C — within 1.5-fold, 7.4 µM
- COc1ccc(NC(=O)N(C)C[C@H]2OCc3ccccc3-c3c(n(C)c4ccccc34)C(=O)N([C@@H](C)CO)C[C@H]2C)c(OC)c1 — 2.6-fold lower, 3.5 µM
- COc1ccc(NC(=O)N2CCN(c3ccc([N+](=O)[O-])cc3)CC2)cc1 — 6-fold lower, 1.52 µM
- C[C@@H]1CN([C@H](C)CO)C(=O)c2c(c3ccccc3n2C)-c2ccccc2CO[C@@H]1CN(C)C(=O)c1ccc(F)cc1 — within 1.5-fold, 6.65 µM
- COc1ccccc1-c1ccc(C2[C@@H]3CN(S(=O)(=O)c4ccc(C)cc4)C[C@H]2N3)cc1 (stereo not given in full) — 2.2-fold higher, 19.7 µM
- COc1ccc(OC)c(NC(=O)CSc2nnc(-c3cccnc3)s2)c1 — 12-fold lower, 0.792 µM
- O=S1(=O)CCOC[C@H](CC2CCCCC2)N1Cc1ccc(F)cc1 — within 1.5-fold, 9.18 µM
- COc1cc2nc(SCc3c(C)noc3C)n(CCC3=CCCCC3)c(=O)c2cc1OC — 3.6-fold lower, 2.51 µM
- Nc1c(C(=O)Nc2ccccc2)sc2ncc([N+](=O)[O-])cc12 — 8.6-fold lower, 1.06 µM
- Cc1ccc2c(CN(Cc3ccccc3)Cc3ccccc3)cc(=O)oc2c1 — 1.5-fold lower, 6.06 µM
- CCOC(=O)c1c(C)n(C)c2ccc(OCC(O)Cn3nc(C)c(Br)c3C)cc12 (stereo not given) — 16-fold lower, 0.556 µM
- C[C@@H]1CN([C@H](C)CO)C(=O)c2c(c3ccccc3n2C)-c2ccccc2CO[C@@H]1CN(C)C(=O)Nc1cccc(C(F)(F)F)c1 — within 1.5-fold, 10.5 µM
- C=CCn1c(=NC(=O)c2ccc(S(=O)(=O)N3CCCC3)cc2)sc2cc(NC(C)=O)ccc21 — within 1.5-fold, 12.3 µM
- COC(=O)c1ccc2[nH]c3cccc(/C(=C/c4ccccc4)c4ccccc4)c3c2c1 — 2.5-fold lower, 3.62 µM
- COC(=O)C[C@@H]1C[C@H]2c3cc(NC(=O)Nc4ccc(C(F)(F)F)cc4)ccc3O[C@H]2[C@H](CO)O1 — within 1.5-fold, 8.45 µM
- O=C(Nc1cccc(C(F)(F)F)c1)c1sc(Cl)nc1C(F)(F)F — 3-fold lower, 3.01 µM
- COc1cc(OC)c2c(-c3cccc(-c4cccc(C)c4)c3)cc(=O)oc2c1 — 5.8-fold lower, 1.56 µM
- O=S(=O)(NC12CC3CC(CC(C3)C1)C2)c1ccc(F)cc1 — 2.3-fold lower, 4.02 µM
- Cc1cc(C)c2c(-n3cccc3)c(C(=O)NNS(=O)(=O)c3ccc(F)cc3)sc2n1 — 1.6-fold lower, 5.62 µM
- Cc1ccc(-c2nnc(N3CCN(C(=O)COc4ccccc4)CC3)c3ccccc23)cc1 — 12-fold lower, 0.734 µM
- Cn1cc(-c2ccc(C(=O)NCc3cccc(Cl)c3)c3occc23)cn1 — 1.9-fold lower, 4.85 µM
- CCOc1ccc(N(C)S(=O)(=O)c2cc(-c3cc(C)no3)ccc2C(C)C)cc1 — 3.1-fold lower, 2.97 µM
- N#C/C(=C(/O)c1ccco1)c1nc2ccccc2[nH]1 — 11-fold lower, 0.841 µM
- Cc1ccc(-c2nnc(Nc3ccc4c(c3)OCO4)c3ccccc23)cc1S(=O)(=O)NCCO — 4.4-fold lower, 2.08 µM
- OCc1ccc2c(c1)c(-c1ccc3c(c1)OCCO3)c(-c1ccccc1)n2-c1ccccc1 — 50-fold lower, 0.184 µM
- Cc1ccc(S(=O)(=O)NC(CC(C)C)C(=O)N2CCCCCCC2)cc1 (stereo not given) — 5.7-fold lower, 1.59 µM
- Cc1ccccc1Cn1cc(NC(=O)c2cc(-c3cccs3)on2)cn1 — 6.9-fold lower, 1.32 µM
- OC[C@H]1O[C@@H](n2cnc3c(NCc4ccco4)ncnc32)[C@H](O)[C@@H]1O — within 1.5-fold, 7.4 µM
- O=C(CSc1nnc(Cn2cnc3ccccc32)o1)c1ccccc1 — within 1.5-fold, 7.68 µM
- CC1(Cc2ccc(Cl)cc2)C(=O)Nc2c(Cl)ccc(Cl)c21 (stereo not given) — 2-fold lower, 4.52 µM
- COc1ccccc1-c1ccc2c(c1)C(C)(Cc1ccc(OC(F)(F)F)cc1)C(=O)N2 (stereo not given) — 3.7-fold lower, 2.47 µM
- COc1cc(-c2nnn(CC#N)n2)ccc1OCc1ccccc1 — 31-fold lower, 0.296 µM
